From patent US10766869B2, “Triazoles for the treatment of demyelinating dieases” (Vertex Pharmaceuticals Incorporated, priority 2015, dated 2020)
Where two headings read alike, the source gives them in different places.

Tested on: primary rat mixed cortical cells
Test: In vitro myelination assay (MBP positive myelin strands, fold myelin pixels above background)
Format: cell-based
Conditions: Rattus norvegicus, relative to baseline of no added compound; for fold induction at 1 µM: 1.0 μM compound; for fold induction at 10 µM: 10.0 μM compound
How it was run: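 Compounds at 1.0 and 10.0 μM were incubated 14 days with dissociated P1 rat cortical cells, which were then fixed and immunostained for MBP. Myelination was scored as fold MBP myelin pixels per well over the no-compound baseline.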

[1] = read-out: Fold myelin pixels above background, 1.0 μM
[2] = read-out: Fold myelin pixels above background, 10.0 μM
[3] = read-out: Fold myelin pixels above background

Cc1cc(Nc2ncn(-c3ccccc3)n2)cc(N2C[C@H]3CCN(C)[C@H]3C2)c1 [Compound 369, N-[3-[(3aR,6aR)-1-methyl-2,3,3a,4,6,6a-hexahydropyrrolo[2,3-c]pyrrol-5-yl]-5-methyl-phenyl]-l-phenyl-1,2,4-triazol-3-amine]
fold induction at 1 µM [1]: 1000 to 10000
fold induction at 10 µM [2]: ≤ 1

CC(=O)N1CCN(c2cc(C)cc(Nc3ncn(-c4cc(F)cc(F)c4)n3)c2)CC1 [Compound 370, 1-[4-[3-[[1-(3,5-difluorophenyl)-1,2,4-triazol-3-yl]amino]-5-methyl-phenyl]piperazin-1-yl]ethanone]
fold induction at 1 µM [1]: 1000 to 10000
fold induction at 10 µM [2]: 100 to 1000

Fc1cc(Nc2ncn(-c3cncc(F)c3)n2)cc(N2CCOCC2)c1 [Compound 371, N-(3-fluoro-5-morpholino-phenyl)-1-(5-fluoro-3-pyridyl)-1,2,4-triazol-3-amine]
fold induction at 1 µM [1]: 1 to 10
fold induction at 10 µM [2]: 100 to 1000

Cc1ccc(-n2cnc(Nc3cc(C)cc(N4CCCC4)c3)n2)cc1 [Compound 372, N-(3-methyl-5-pyrrolidin-1-yl-phenyl)-1-(p-tolyl)-1,2,4-triazol-3-amine]
fold induction at 1 µM [1]: 1 to 10
fold induction at 10 µM [2]: 10 to 100

COCCN(C)c1cc(F)cc(-n2cnc(Nc3cc(C)cc(N4CCN(C5COC5)CC4)c3)n2)c1 [Compound 373, 1-[3-fluoro-5-[2-methoxyethyl(methyl)amino]phenyl]-N-[3-methyl-5-[4-(oxetan-3-yl)piperazin-1-yl]phenyl]-1,2,4-triazol-3-amine]
fold induction at 1 µM [1]: 100 to 1000
fold induction at 10 µM [2]: 100 to 1000

Cc1cc(Nc2ncn(-c3cc(F)cc(F)c3)n2)cc(N2CCOCC2)c1 [Compound 374, 1-(3,5-difluorophenyl)-N-(3-methyl-5-morpholino-phenyl)-1,2,4-triazol-3-amine]
fold induction at 1 µM [1]: 100 to 1000
fold induction at 10 µM [2]: 100 to 1000

Cc1cc(Nc2ncn(-c3cccc(F)c3)n2)cc(N2CCN(C3(C)COC3)CC2)c1 [Compound 375, 1-(3-fluorophenyl)-N-[3-methyl-5-[4-(3-methyloxetan-3-yl)piperazin-1-yl]phenyl]-1,2,4-triazol-3-amine]
fold induction at 1 µM [1]: 1000 to 10000
fold induction at 10 µM [2]: 10 to 100

CC(C)(C)c1cc(Nc2ncn(-c3ccccc3)n2)cc(N2CCN(C3COC3)CC2)c1 [Compound 376, N-[3-tert-butyl-5-[4-(oxetan-3-yl)piperazin-1-yl]phenyl]-1-phenyl-1,2,4-triazol-3-amine]
fold induction at 1 µM [1]: 100 to 1000
fold induction at 10 µM [2]: 1 to 10

COc1cc(-n2cnc(Nc3cc(C4CC4)cc(N4CCN(C5COC5)CC4)c3)n2)ncn1 [Compound 377, N-[3-cyclopropyl-5-[4-(oxetan-3-yl)piperazin-1-yl]phenyl]-1-(6-methoxypyrimidin-4-yl)-1,2,4-triazol-3-amine]
fold induction at 1 µM [1]: 100 to 1000
fold induction at 10 µM [2]: 10 to 100

Fc1cc(F)cc(-n2cnc(Nc3cc(C4CC4)nc(N4CCCCC4)c3)n2)c1 [Compound 378, 2-cyclopropyl-N-[1-(3,5-difluorophenyl)-1,2,4-triazol-3-yl]-6-(1-piperidyl)pyridin-4-amine]
fold induction at 1 µM [1]: 1 to 10
fold induction at 10 µM [2]: 10 to 100

Cc1cc(Nc2ncn(-c3cc(F)cc(F)c3)n2)cc(N2CC(n3cccn3)C2)c1 [Compound 379, 1-(3,5-difluorophenyl)-N-[3-methyl-5-(3-pyrazol-1-ylazetidin-1-yl)phenyl]-1,2,4-triazol-3-amine]
fold induction at 1 µM [1]: 10 to 100
fold induction at 10 µM [2]: 100 to 1000

Clc1cc(Nc2ncn(-c3ccccc3)n2)cc(N2CCCC2)c1 [Compound 380, N-(3-chloro-5-pyrrolidin-1-yl-phenyl)-1-phenyl-1,2,4-triazol-3-amine]
fold induction at 1 µM [1]: 100 to 1000
fold induction at 10 µM [2]: 10 to 100

Cc1cc(Nc2ncn(-c3cncnc3)n2)cc(N2CCN(C)CC2)c1 [Compound 381, N-[3-methyl-5-(4-methylpiperazin-1-yl)phenyl]-1-pyrimidin-5-yl-1,2,4-triazol-3-amine]
fold induction at 1 µM [1]: 1 to 10
fold induction at 10 µM [2]: 100 to 1000

Cc1cc(Nc2ncn(-c3cccc(F)c3)n2)cc(C2CCN(C3COC3)C2)c1 (centres unmarked) [Compound 382, 1-(3-fluorophenyl)-N-[3-methyl-5-[1-(oxetan-3-yl)pyrrolidin-3-yl]phenyl]-1,2,4-triazol-3-amine]
fold induction at 1 µM [1]: 1000 to 10000
fold induction at 10 µM [2]: 1 to 10

Cc1cc(Nc2ncn(-c3cc(F)ccc3F)n2)cc(N2CCC(C3COC3)CC2)c1 [Compound 383, 1-(2,5-difluorophenyl)-N-[3-methyl-5-[4-(oxetan-3-yl)-1-piperidyl]phenyl]-1,2,4-triazol-3-amine]
fold induction at 1 µM [1]: 10 to 100
fold induction at 10 µM [2]: 1 to 10

Cc1cc(Nc2ncn(-c3ccc(F)c(F)c3)n2)cc(OC2CCN(C3COC3)CC2)c1 [Compound 384, 1-(3,4-difluorophenyl)-N-[3-methyl-5-[[1-(oxetan-3-yl)-4-piperidyl]oxy]phenyl]-1,2,4-triazol-3-amine]
fold induction at 1 µM [1]: 100 to 1000
fold induction at 10 µM [2]: 100 to 1000

COCC1CCN(c2cc(C)cc(Nc3ncn(-c4ccncc4)n3)c2)CC1 [Compound 385, N-[3-[4-(methoxymethyl)-1-piperidyl]-5-methyl-phenyl]-1-(4-pyridyl)-1,2,4-triazol-3-amine]
fold induction at 1 µM [1]: 100 to 1000
fold induction at 10 µM [2]: 100 to 1000

Cc1cc(Nc2ncn(-c3ccc(F)c(F)c3)n2)cc(N2CCN(C3COC3)CC2)c1 [Compound 386, 1-(3,4-difluorophenyl)-N-[3-methyl-5-[4-(oxetan-3-yl)piperazin-1-yl]phenyl]-1,2,4-triazol-3-amine]
fold induction at 1 µM [3]: 100 to 1000
fold induction at 10 µM [3]: 1000 to 10000

Cc1cc(Nc2ncn(-c3cncc(F)c3)n2)cc(N2CCN(C)CC2)c1 [Compound 387, 1-(5-fluoro-3-pyridyl)-N-[3-methyl-5-(4-methylpiperazin-1-yl)phenyl]-1,2,4-triazol-3-amine]
fold induction at 1 µM [3]: 10 to 100
fold induction at 10 µM [3]: 100 to 1000

COc1cc(F)cc(-n2cnc(Nc3cc(C4CC4)cc(N4CCN(C5COC5)CC4)c3)n2)c1 [Compound 388, N-[3-cyclopropyl-5-[4-(oxetan-3-yl)piperazin-1-yl]phenyl]-1-(3-fluoro-5-methoxy-phenyl)-1,2,4-triazol-3-amine]
fold induction at 1 µM [3]: 10 to 100
fold induction at 10 µM [3]: ≤ 1

Fc1cc(F)cc(-n2cnc(Nc3cc(C4CC4)cc(N4CCN(C5COC5)CC4)c3)n2)c1 [Compound 389, N-(3-cyclopropyl-5-(4-(oxetan-3-yl)piperazin-1-yl)phenyl)-1-(3,5-difluorophenyl)-1H-1,2,4-triazol-3-amine]
fold induction at 1 µM [3]: 1000 to 10000
fold induction at 10 µM [3]: ≤ 1

CCN(C)Cc1cc(F)cc(-n2cnc(Nc3cc(C)cc(N4CCN(C)CC4)c3)n2)c1 [Compound 390, 1-[3-[[ethyl(methyl)amino]methyl]-5-fluoro-phenyl]-N-[3-methyl-5-(4-methylpiperazin-1-yl)phenyl]-1,2,4-triazol-3-amine]
fold induction at 1 µM [3]: 10 to 100
fold induction at 10 µM [3]: 10 to 100

Cc1cc(Nc2ncn(-c3ccccc3)n2)cc(O[C@@H]2CCN(C3COC3)C2)c1 [Compound 391, N-[3-methyl-5-[(3R)-1-(oxetan-3-yl)pyrrolidin-3-yl]oxy-phenyl]-1-phenyl-1,2,4-triazol-3-amine]
fold induction at 1 µM [3]: 1000 to 10000
fold induction at 10 µM [3]: 100 to 1000

FC(F)c1cc(Nc2ncn(-c3ccccc3)n2)cc(N2CCOCC2)c1 [Compound 392, N-[3-(difluoromethyl)-5-morpholino-phenyl]-1-phenyl-1,2,4-triazol-3-amine]
fold induction at 1 µM [3]: 100 to 1000
fold induction at 10 µM [3]: 10 to 100

Fc1ccc(-n2cnc(Nc3cc(N4CCOCC4)nc(N4CCOCC4)c3)n2)cc1F [Compound 393, N-[1-(3,4-difluorophenyl)-1,2,4-triazol-3-yl]-2,6-dimorpholino-pyridin-4-amine]
fold induction at 1 µM [3]: 100 to 1000
fold induction at 10 µM [3]: ≤ 1

Fc1ccc(-n2cnc(Nc3cc(F)cc(N4CCOCC4)c3)n2)cc1 [Compound 394, N-(3-fluoro-5-morpholino-phenyl)-1-(4-fluorophenyl)-1,2,4-triazol-3-amine]
fold induction at 1 µM [3]: 1 to 10
fold induction at 10 µM [3]: ≤ 1

COc1cc(F)cc(-n2cnc(Nc3cc(C)cc(N4CCN(C)CC4)c3)n2)c1 [Compound 395, 1-(3-fluoro-5-methoxy-phenyl)-N-[3-methyl-5-(4-methylpiperazin-1-yl)phenyl]-1,2,4-triazol-3-amine]
fold induction at 1 µM [3]: 10 to 100
fold induction at 10 µM [3]: ≤ 1

CCCc1cc(Nc2ncn(-c3cc(F)cc(F)c3)n2)cc(N2CCN(C3COC3)CC2)c1 [Compound 396, 1-(3,5-difluorophenyl)-N-[3-[4-(oxetan-3-yl)piperazin-1-yl]-5-propyl-phenyl]-1,2,4-triazol-3-amine]
fold induction at 1 µM [3]: 10 to 100
fold induction at 10 µM [3]: 10 to 100

Cc1cc(Nc2ncn(-c3cccc(Cl)c3)n2)cc(N2CCN(C3COC3)CC2)c1 [Compound 397, 1-(3-chlorophenyl)-N-[3-methyl-5-[4-(oxetan-3-yl)piperazin-1-yl]phenyl]-1,2,4-triazol-3-amine]
fold induction at 1 µM [3]: 1000 to 10000
fold induction at 10 µM [3]: 100 to 1000

Cc1cc(Nc2ncn(-c3ccccc3)n2)cc(N2CCN(CC(F)(F)F)CC2)c1 [Compound 398, N-[3-methyl-5-[4-(2,2,2-trifluoroethyl)piperazin-1-yl]phenyl]-1-phenyl-1,2,4-triazol-3-amine]
fold induction at 1 µM [3]: 1000 to 10000
fold induction at 10 µM [3]: 100 to 1000

Cc1cc(Nc2ncn(-c3ccnnc3)n2)cc(N2CCN(C)CC2)c1 [Compound 399, N-[3-methyl-5-(4-methylpiperazin-1-yl)phenyl]-1-pyridazin-4-yl-1,2,4-triazol-3-amine]
fold induction at 1 µM [3]: 10 to 100
fold induction at 10 µM [3]: 1 to 10
